Series [1] can be described thus: Cmax in BALB/C mouse at 10 mg/kg, iv measured upto 24 hrs by LC-MS analysis. Set-up: route intravenous, dose 10 mg/kg, time <= 24. The settings on record: in vivo. Format: ADME, organism-based.
Series [2] is described as follows: AUClast in Sprague-Dawley rat at 2 mg/kg, iv measured upto 24 hrs by LC-MS/MS analysis. Format: ADME, organism-based. Set-up: route intravenous, dose 2 mg/kg, time <=24. To be noted: in vivo.
The nature of series [3]: Oral bioavailability in BALB/C mouse at 10 mg/kg measured upto 24 hrs by LC-MS analysis. It counts as ADME, organism-based. To be noted: in vivo.
A short description of series [4]: Volume of distribution at steady state in Sprague-Dawley rat at 2 mg/kg, iv measured upto 24 hrs by LC-MS/MS analysis. The settings on record: in vivo, read-out: Vdss. Format: ADME, organism-based.
Series [5] in a line: Cmax in BALB/C mouse at 10 mg/kg,po measured upto 24 hrs by LC-MS analysis. It counts as ADME, organism-based. Set-up: route oral, dose 10 mg/kg, time <= 24. To be noted: in vivo.
Series [6] can be described thus: Tmax in BALB/C mouse at 10 mg/kg, po measured upto 24 hrs by LC-MS analysis. Format: ADME, organism-based. To be noted: in vivo.
Series [7] can be described thus: Volume of distribution at steady state in Beagle dog at 1 mg/kg, iv measured upto 24 hrs by LC-MS/MS analysis. It counts as ADME, organism-based, Canis lupus familiaris. To be noted: in vivo, 1 mg/kg, 24 h.
A short description of series [8]: Cmax in Beagle dog at 5 mg/kg, po measured upto 24 hrs by LC-MS/MS analysis. On the set-up: route oral, dose 5 mg/kg, time <=24. The settings on record: in vivo. It counts as ADME, organism-based, Canis lupus familiaris.
Series [9] is described as follows: AUClast in BALB/C mouse at 10 mg/kg, iv measured upto 24 hrs by LC-MS analysis. Format: ADME, organism-based. The settings on record: in vivo. On the set-up: route intravenous, dose 10 mg/kg, time <= 24.
A short description of series [10]: Tmax in Sprague-Dawley rat at 2 mg/kg, iv measured upto 24 hrs by LC-MS/MS analysis. Format: ADME, organism-based. The settings on record: in vivo.
The nature of series [11]: Cmax in Beagle dog at 1 mg/kg, iv measured upto 24 hrs by LC-MS/MS analysis. Format: ADME, organism-based, Canis lupus familiaris. On the set-up: route intravenous, dose 1 mg/kg, time <=24. To be noted: in vivo.
Series [12] in a line: AUClast in Beagle dog at 1 mg/kg, iv measured upto 24 hrs by LC-MS/MS analysis. On the set-up: route intravenous, dose 1 mg/kg, time <=24. The settings on record: in vivo. It counts as ADME, organism-based, Canis lupus familiaris.
Series [13] can be described thus: Cmax in Sprague-Dawley rat at 10 mg/kg, po measured upto 24 hrs by LC-MS/MS analysis. Format: ADME, organism-based. To be noted: in vivo. Set-up: route oral, dose 10 mg/kg, time <=24.
Series [14] in a line: Tmax in BALB/C mouse at 10 mg/kg, iv measured upto 24 hrs by LC-MS analysis. The settings on record: in vivo. It counts as ADME, organism-based.
The nature of series [15]: Oral bioavailability in Beagle dog at 5 mg/kg measured upto 24 hrs by LC-MS/MS analysis. It counts as ADME, organism-based, Canis lupus familiaris. To be noted: in vivo.
Series [16] is described as follows: Tmax in Sprague-Dawley rat at 10 mg/kg, po measured upto 24 hrs by LC-MS/MS analysis. It counts as ADME, organism-based. The settings on record: in vivo.
Series [17] can be described thus: AUClast in Beagle dog at 5 mg/kg, po measured upto 24 hrs by LC-MS/MS analysis. To be noted: in vivo. On the set-up: route oral, dose 5 mg/kg, time <=24. Format: ADME, organism-based, Canis lupus familiaris.
The nature of series [18]: Cmax in Sprague-Dawley rat at 2 mg/kg, iv measured upto 24 hrs by LC-MS/MS analysis. It counts as ADME, organism-based. Set-up: route intravenous, dose 2 mg/kg, time <=24. To be noted: in vivo.
Series [19] in a line: AUClast in BALB/C mouse at 10 mg/kg,po measured upto 24 hrs by LC-MS analysis. It counts as ADME, organism-based. Set-up: route oral, dose 10 mg/kg, time <= 24. To be noted: in vivo.
The nature of series [20]: Oral bioavailability in Sprague-Dawley rat at 10 mg/kg measured upto 24 hrs by LC-MS/MS analysis. It counts as ADME, organism-based. The settings on record: in vivo.
Series [21] in a line: Tmax in Beagle dog at 5 mg/kg, po measured upto 24 hrs by LC-MS/MS analysis. To be noted: in vivo. It counts as ADME, organism-based, Canis lupus familiaris.
The nature of series [22]: Lipophilicity, log D of compound at pH 7.4. Format: physicochemical. To be noted: buffer.
Series [23] in a line: Solubility of the compound. It counts as physicochemical.
A short description of series [24]: Volume of distribution at steady state in BALB/C mouse at 1 mg/kg, iv measured upto 24 hrs by LC-MS analysis. It counts as ADME, organism-based. The settings on record: in vivo, read-out: Vdss.
Series [25] is described as follows: Tmax in BALB/C mouse at 1 mg/kg, iv measured upto 24 hrs by LC-MS analysis. The settings on record: in vivo. Format: ADME, organism-based.
The nature of series [26]: Cmax in BALB/C mouse at 1 mg/kg, iv measured upto 24 hrs by LC-MS analysis. On the set-up: route intravenous, dose 1 mg/kg, time <= 24. To be noted: in vivo. It counts as ADME, organism-based.
Series [27] can be described thus: AUClast in BALB/C mouse at 1 mg/kg, iv measured upto 24 hrs by LC-MS analysis. Format: ADME, organism-based. Set-up: route intravenous, dose 1 mg/kg, time <= 24. To be noted: in vivo.

≈ marks a conversion by molar mass, not a printed value.

By Cmax is commonly meant the maximum level reached in the sampled fluid or tissue. For orientation: AUC(0-t) means exposure summed from dosing to a finite time, without extrapolation to infinity. Read a high AUC(0-t) as high exposure. In general, bioavailability refers to the share of a dose that reaches the circulation, judged against a reference dose that is usually intravenous. Read a low bioavailability as little systemic uptake. One may read the Tmax as the time from dosing to the highest level. The Vdss is a proportionality between amount in the body and measured concentration, not a real space. As for `C[C@H](Nc1ncnc2[nH]cnc12)c1nc2cccc(Cl)c2c(=O)n1-c1ccccc1`, the Cmax in series [1] worked out at 13300 nM; in series [5] it was 930 nM; in series [8], 5680 nM; in series [11] it was 1200 nM; in series [13], 1880 nM; in series [18], 3640 nM. For the same compound, the AUC(0-t) at 24 h was found to be 2.77 µM·h in series [2], 4.55 µM·h in [9] and 0.328 µM·h in series [19]. The bioavailability was determined as 7% in [3] and 57% in series [20]. Moreover, the Vd in series [4] came to 1.66 L/kg. The Tmax was found to be 4.98 min in series [6]; 4.98 min in series [10]; 4.98 min in [14]; 72 min in series [16]; 79.8 min in series [21]. This compound also returned a Vdss in [7] of 57 L/kg. The results for the AUClast in [12] and in series [17] were 1.88 µM·h and 26.25 µM·h, respectively. The same compound returned a F in series [15] of 40%.
Broadly, the logD is lipophilicity at a set pH, counting ionised and neutral species. The solubility is the concentration that dissolves in the medium under given conditions. Read a high solubility as a readily soluble substance. In turn, `Cc1nc(N)nc(N[C@@H](C)c2c(-c3ccccc3)c(=O)n3cc(F)ccc3c2-c2ccc(F)cc2)c1C#N` returned a log distribution coefficient (logD) in series [22] of 3.26. For the same compound, the solubility in series [23] came out at 44.9 µM (≈ 22.9 µg/mL).
The compound `C[C@H](Nc1nc(N)nc(N)c1C#N)c1c(-c2ccccc2)c(=O)n2cc(F)ccc2c1-c1ccccc1` showed a log distribution coefficient (logD) in [22] of 2.49. Moreover, in series [23], the solubility stood at 50.6 µM (≈ 24.9 µg/mL).
`C[C@H](Nc1nc(N)nc(N)c1C#N)c1c(-c2ccccc2)c(=O)n2cc(F)ccc2c1C1CC1`: in [3], the bioavailability came out at 16%. The Cmax in [5] worked out at 1300 nM; in series [26] it was 1400 nM. The Tmax in series [6] stood at 60 min; in series [25] it was 4.8 min. Besides, the Vd in [24] was determined as 1.8 L/kg. Moreover, the exposure AUC(0-t) at 24 h in series [19] worked out at 2.4 µM·h; in [27], 1.5 µM·h.
